Drawing on patent US4308274A, “N-Alkylsulfonyl-, N-arylsulfonyl-, and N-aminosulfonylaminosulfinylcarbamate esters” (priority 1979, dated 1981), this text covers LD50 for twelve compounds.

Read-outs that look alike come from different tables or passages of the source. Where only a bound is given, the exact number is not on record here.

The subject of data set [1] is house flies, Musca domestica. The data set can be described thus: insecticidal activity against house flies (topical, 24 hours mortality). Format: in vivo. Conditions: read-out: House flies LD50. As to the method: Representative carbamate esters of the invention were tested for insecticidal activity against house flies, Musca domestica. Stock 1% concentrated solutions for each of the test compounds were made in acetone, and such solutions diluted with acetone to a concentration of 0.001-0.1%. House flies were treated topically on the notum by 1 μl of each of the diluted acetone solutions and percent mortality was counted 24 hours after application. The insects were held at a constant temperature of 60° F. Results are given in μg/g.

A short description of data set [2]: mammalian toxicity against Swiss white mice (oral). The following applies: mouse, in vivo, corn oil carrier. How it is done: Mammalian toxicity was determined against Swiss white mice.
[3] abbreviates: topical on the notum, 1 μl acetone solution, percent mortality 24 hours after application, 60° F.

As usually defined, the LD50 is the dose expected to kill half of the subjects tested. Regarding `CN(C(=O)Oc1cccc2c1OC(C)(C)C2)[S+]([O-])N(C)S(=O)(=O)c1ccccc1` (stereo not drawn) [Example I, 2,3-dihydro-2,2-dimethylbenzofuranyl-7N-(N'-benzenesulfonyl-N'-methylaminosulfinyl)-N-methylcarbamate], the LD50 in data set [1] (topical, 24 h) is 9.5 mg/kg; in data set [2] it was 35 mg/kg.

For `CCCCN(CCCC)S(=O)(=O)N(C)[S+]([O-])N(C)C(=O)Oc1cccc2c1OC(C)(C)C2` (stereo not drawn) [Example IX, 2,3-dihydro-2,2-dimethylbenzofuranyl-7 N-(N'-dibutylaminosulfonyl-N'-methylaminosulfinyl)-N-methylcarbamate], the LD50 in data set [1] (topical, 24 h) came out at 12 mg/kg; in data set [2] it was 25 mg/kg. Take `CN(C(=O)Oc1cccc2c1OC(C)(C)C2)[S+]([O-])N(C)S(=O)(=O)N1CCOCC1` (stereo not drawn) [Example X, 2,3-Dihydro-2,2-dimethylbenzofuranyl-7N-[N'-(N"-morpholinosulfonyl)-N'-methylaminosulfinyl]N-methylcarbamate]: in data set [1] (topical, 24 h), the 50% lethal dose (LD50) is 13 mg/kg. On the same count and under the same terms, for `CCN([S+]([O-])N(C)C(=O)Oc1cccc2c1OC(C)(C)C2)S(=O)(=O)N1CCOCC1` (stereo not drawn) [Example XI, 2,3-Dihydro-2,2-dimethylbenzofuranyl-7-N-(N'-morpholinosulfonyl-N'-ethylaminosulfinyl)-N-methylcarbamate] the value was 10 mg/kg.

Consider `CCCCN(CCCC)S(=O)(=O)N(C)[S+]([O-])N(C)C(=O)ON=C(C)SC` (stereo not drawn) [Example XII, S-methyl N-[N'-(N"-dibutylaminosulfonyl-N"-methylaminosulfinyl)-N'-methylcarbamoyloxy]thioacetimidate], for which the LD50 stood at 9 mg/kg in data set [1] (setting [3]) and 100 mg/kg in data set [2].

As for `CC(C)Oc1ccccc1OC(=O)N(C)[S+]([O-])N(C)S(=O)(=O)c1ccccc1` (stereo not drawn) [II, 2-isopropoxyphenyl N-(N'-benzenesulfonyl-N'-methylaminosulfinyl)-N-methylcarbamate], the LD50 in data set [1] (topical, 24 h) worked out at 55 mg/kg; in data set [2] it was 250 mg/kg. With `CC(C)c1cccc(OC(=O)N(C)[S+]([O-])N(C)S(=O)(=O)c2ccccc2)c1` (stereo not drawn) [III, 3-isopropylphenyl N-(N'-benzenesulfonyl-N'-methylaminosulfinyl)-N-methylcarbamate], the LD50 in data set [1] (topical, 24 h) came to 95 mg/kg; in data set [2], 150 mg/kg.

Consider `CN(C(=O)Oc1cccc2ccccc12)[S+]([O-])N(C)S(=O)(=O)c1ccccc1` (stereo not drawn) [IV, 1-naphthyl N-(N'-benzenesulfonyl-N'-methylaminosulfinyl)-N-methylcarbamate], for which the LD50 in data set [1] (topical, 24 h) was 450 mg/kg; in data set [2], over 500 mg/kg.

For the compound `CSC(C)=NOC(=O)N(C)[S+]([O-])N(C)S(=O)(=O)c1ccccc1` (stereo not drawn) [V, S-methyl N-[N'-(N"-benzenesulfonyl-N"-methylaminosulfinyl)-N'-methylcarbamoyloxy]thioacetimidate], the median lethal dose (LD50) worked out at 17.5 mg/kg in data set [1] (setting [3]) and 86 mg/kg in data set [2]. As for `CCN([S+]([O-])N(C)C(=O)Oc1cccc2c1OC(C)(C)C2)S(C)(=O)=O` (stereo not drawn) [VI, 2,3-dihydro-2,2-dimethylbenzofuranyl-7 N-(N'-methanesulfonyl-N'-ethylaminosulfinyl)-N-methylcarbamate], the LD50 in data set [1] (topical, 24 h) stood at 12.5 mg/kg. As for `CCN([S+]([O-])N(C)C(=O)Oc1cccc(C(C)C)c1)S(C)(=O)=O` (stereo not drawn) [VII, 3-isopropylphenyl N-(N'-methanesulfonyl-N'-ethylaminosulfinyl)-N-methylcarbamate], the 50% lethal dose (LD50) in data set [1] (topical, 24 h) was 90 mg/kg; in data set [2], 200 mg/kg. Turning to `CCN([S+]([O-])N(C)C(=O)ON=C(C)SC)S(C)(=O)=O` (stereo not drawn) [VIII, S-methyl N-[N'-(N"-methanesulfonyl-N"-ethylaminosulfinyl)-N'-methylcarbamoyloxy]thioacetimidate], the LD50 in data set [1] (setting [3]) came to 25 mg/kg; in data set [2], 250 mg/kg.
